Results: patent US20250034117A1, “Deuterated 1,3 Dihydro -2H-indole-2-one derivatives” (HMNC Holding GmbH, priority 2023, published 2025)
Read-outs that look alike come from different tables or passages of the source.

Tests used:
[1] = in vitro; settings: human, microsomes, pH 7.4
Protocol: (§1) Liver microsomal stability assays are conducted with human liver microsomes at a final liver microsomal protein concentration of 0.1007 mg per ml. Test compounds are prepared as solutions in 0.01% DMSO, 0.25% acetonitril and 0.25% methanol. The test compound is added to the reaction mixture at a final concentration of 0.1 μM and pre-incubated with pooled liver microsomes in phosphate buffer (pH 7.4) for 10 min on plate shaker in a 37° C. incubator. The reaction is initiated by adding a NADPH-generating system and incubated for 0, 15, 30, 45, and 60 min. The reaction is stopped by transferring the incubation mixture to Stop Buffer solvent (acetonitrile/methanol). Samples are then mixed and centrifuged. The supernatant samples are loaded onto the LC/MS/MS for analysis. Samples are analyzed by LC/MS/MS using multiple reaction monitoring (MRM). The UPLC system consists of a binary LC pump with autosampler, a C-18 column, and a gradient.
(§2) Four reference compounds are tested in each assay (Propranolol, imipramine, verapamil and terfenadine).
(§3) For data analysis, peak areas corresponding to the test compound are recorded. The compound remaining is calculated by comparing the peak area at each time point to time zero. The half-life is calculated from the slope of the initial linear range of the logarithmic curve of compound remaining (%) vs. time, assuming first order kinetics.

[2] = target: V1a (Homo sapiens (Human), UniProt P37288); assay: Activity assay in the agonistic mode, V1a; type: biochemical
[3] = target: V2 (Homo sapiens (Human), UniProt P30518); assay: Activity assay in the agonistic mode, V2; type: biochemical
[4] = human, microsomes, 0.1 μM, pH 7.4
Protocol: as §1, §2, §3

[5] = target: OT receptors (Homo sapiens (Human), UniProt P30559); assay: Activity assay in the agonistic mode, OT receptors; type: biochemical
[6] = In vitro human liver microsomal (HLM) stability assay; settings: for Half-life: human liver microsomes, first order kinetics; for % Compound Remaining (Mean): 0.1 μM compound, human liver microsomes 0.1007 mg/ml
Protocol: as §1, §2, §3

[7] = 10 mg/kg p.o.; cited from earlier work

Chain of V2 (P30518 whole entry): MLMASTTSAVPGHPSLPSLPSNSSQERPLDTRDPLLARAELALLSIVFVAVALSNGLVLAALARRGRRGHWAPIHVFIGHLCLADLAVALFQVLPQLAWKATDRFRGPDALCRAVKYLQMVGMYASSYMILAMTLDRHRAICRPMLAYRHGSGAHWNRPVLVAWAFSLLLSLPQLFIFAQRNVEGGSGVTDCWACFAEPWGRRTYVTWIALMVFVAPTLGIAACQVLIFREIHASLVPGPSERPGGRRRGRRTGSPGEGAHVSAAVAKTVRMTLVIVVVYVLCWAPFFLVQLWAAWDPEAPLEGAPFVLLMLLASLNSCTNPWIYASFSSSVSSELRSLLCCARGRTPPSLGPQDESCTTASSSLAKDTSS
Chain of OT receptors (P30559 whole entry): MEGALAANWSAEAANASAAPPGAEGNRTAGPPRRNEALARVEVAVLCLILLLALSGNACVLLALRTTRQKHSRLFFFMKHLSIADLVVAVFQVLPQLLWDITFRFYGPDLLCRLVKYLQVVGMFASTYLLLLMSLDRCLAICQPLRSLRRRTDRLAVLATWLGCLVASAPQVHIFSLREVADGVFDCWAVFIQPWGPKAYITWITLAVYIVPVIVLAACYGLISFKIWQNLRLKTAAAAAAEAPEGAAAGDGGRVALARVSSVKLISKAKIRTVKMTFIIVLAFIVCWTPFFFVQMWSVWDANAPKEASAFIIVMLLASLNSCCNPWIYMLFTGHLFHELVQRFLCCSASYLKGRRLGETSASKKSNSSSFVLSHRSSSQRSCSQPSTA
Chain of V1a (P37288 whole entry): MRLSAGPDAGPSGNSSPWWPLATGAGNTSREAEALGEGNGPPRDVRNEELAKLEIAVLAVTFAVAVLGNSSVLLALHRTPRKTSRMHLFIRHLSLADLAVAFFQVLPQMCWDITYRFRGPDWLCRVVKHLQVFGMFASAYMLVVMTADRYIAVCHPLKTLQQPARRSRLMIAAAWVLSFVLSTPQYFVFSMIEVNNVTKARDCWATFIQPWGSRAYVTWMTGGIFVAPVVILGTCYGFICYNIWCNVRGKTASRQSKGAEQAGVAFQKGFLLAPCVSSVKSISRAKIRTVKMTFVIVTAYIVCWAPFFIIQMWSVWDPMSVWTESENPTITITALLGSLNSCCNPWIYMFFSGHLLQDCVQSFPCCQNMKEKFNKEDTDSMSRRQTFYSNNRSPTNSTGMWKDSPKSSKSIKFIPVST

Structure (SMILES): [2H]C([2H])([2H])Oc1ccccc1[C@@]1(N2C[C@H](O)C[C@H]2C(=O)N(C)C)C(=O)N(S(=O)(=O)c2ccc(OC)cc2OC)c2ccc(Cl)cc21 [Example 2, (2S,4R)1-[(3R)-5-chloro-1-[(2,4-dimethoxyphenyl)sulfonyl]-2,3-dihydro-3-(2-methoxy-d3-phenyl)-2-oxo-1H-indol-3-yl]-4-hydroxy-N,N-dimethyl-2-pyrrolidinecarboxamide]
- half-life at 0.1 μM [1]: 4.1 min
- activity in the agonistic mode in comparison to undeuterated nelivaptan [2]: no significant difference
- activity in the agonistic mode in comparison to undeuterated nelivaptan [3]: no significant difference
- % Compound Remaining (Mean) ([4]; 0 h): 100.0%
- % Compound Remaining (Mean) ([4]; 0.25 h): 7.7%
- % Compound Remaining (Mean) ([4]; 0.5 h): 0.4%
- % Compound Remaining (Mean) ([4]; 0.75 h): 0.1%
- % Compound Remaining (Mean) ([4]; 1 h): 0.02%
- activity in the agonistic mode in comparison to undeuterated nelivaptan [5]: no significant difference

Structure (SMILES): [2H]C([2H])([2H])Oc1ccc(S(=O)(=O)N2C(=O)[C@@](c3ccccc3OC([2H])([2H])[2H])(N3C[C@H](O)C[C@H]3C(=O)N(C([2H])([2H])[2H])C([2H])([2H])[2H])c3cc(Cl)ccc32)c(OC([2H])([2H])[2H])c1 [Example 3, (2S,4R)1-[(3R)-5-chloro-1-[(2,4-dimeth-d6-oxyphenyl)sulfonyl]-2,3-dihydro-3-(2-methoxy-d3-phenyl)-2-oxo-1H-indol-3-yl]-4-hydroxy-N,N-dimethyl-d6-2-pyrrolidinecarboxamide]
- activity in the agonistic mode in comparison to undeuterated nelivaptan [2]: no significant difference
- activity in the agonistic mode in comparison to undeuterated nelivaptan [3]: no significant difference
- activity in the agonistic mode in comparison to undeuterated nelivaptan [5]: no significant difference
- Half-life [6]: 6.2 min
- % Compound Remaining (Mean) ([6]; incubation 0 min): 100%
- % Compound Remaining (Mean) ([6]; incubation 15 min): 5.40%
- % Compound Remaining (Mean) ([6]; incubation 30 min): 0.39%
- % Compound Remaining (Mean) ([6]; incubation 45 min): 0.15%
- % Compound Remaining (Mean) ([6]; incubation 60 min): 0.13%

Structure (SMILES): [2H]C([2H])([2H])N(C(=O)[C@@H]1C[C@@H](O)CN1[C@]1(c2ccccc2OC)C(=O)N(S(=O)(=O)c2ccc(OC)cc2OC)c2ccc(Cl)cc21)C([2H])([2H])[2H] [Example 1, (2S,4R)1-[(3R)-5-chloro-1-[(2,4-dimethoxyphenyl)sulfonyl]-2,3-dihydro-3-(2-methoxyphenyl)-2-oxo-1H-indol-3-yl]-4-hydroxy-N,N-dimethyl-d6-2-pyrrolidinecarboxamide]
- activity in the agonistic mode in comparison to undeuterated nelivaptan [2]: no significant difference
- activity in the agonistic mode in comparison to undeuterated nelivaptan [3]: no significant difference
- activity in the agonistic mode in comparison to undeuterated nelivaptan [5]: no significant difference
- Half-life [6]: 4.7 min
- % Compound Remaining (Mean) ([6]; incubation 0 min): 100.0%
- % Compound Remaining (Mean) ([6]; incubation 15 min): 14.3%
- % Compound Remaining (Mean) ([6]; incubation 30 min): 1.2%
- % Compound Remaining (Mean) ([6]; incubation 45 min): 0.1%
- % Compound Remaining (Mean) ([6]; incubation 60 min): 0.03%

Structure (SMILES): COc1ccc(S(=O)(=O)N2C(=O)[C@@](c3ccccc3OC)(N3C[C@H](O)C[C@H]3C(=O)N(C)C)c3cc(Cl)ccc32)c(OC)c1 [Nelivaptan, (2S,4R)-1-[(3R)-5-chloro-1-(2,4-dimethoxyphenyl)sulfonyl-3-(2-methoxyphenyl)-2-oxoindol-3-yl]-4-hydroxy-N,N-dimethylpyrrolidine-2-carboxamide, reference compound]
- duration of action [7]: > 4 h
- half-life at 0.1 μM [1]: 3.2 min
- % Compound Remaining (Mean) ([4]; 0 h): 100.0%
- % Compound Remaining (Mean) ([4]; 0.25 h): 3.8%
- % Compound Remaining (Mean) ([4]; 0.5 h): 0.4%
- % Compound Remaining (Mean) ([4]; 0.75 h): 0.1%
- % Compound Remaining (Mean) ([4]; 1 h): 0.03%
